Source: US10850135B2, “Antiseptic-tolerant lactic acid bacteria” (AB-BIOTICS, S.A., priority 2016, dated 2020)

How the values were obtained:
Assay in all cases: Tolerance to antiseptics, disc diffusion assay
[1] = test system: Pediococcus strains (P. acidilactici CECT8633, P. acidilactici AB134, P. pentosaceus CECT8330); type: cell-based, Pediococcus sp.; conditions: for resistance compared with the other strains tested (disc diffusion): vs L. brevis, Streptococcus sp. and P. gingivalis
Protocol: (§1) LAB strains with presumed probiotic properties namely L. brevis, P. acidilactici, P. pentosaceus, S. oralis and S. salivarius were seeded in agar plates with the appropriate nutrient media and incubated in order to obtain isolated colonies. Porphyromonas gingivalis DSM20709 was used as an example of pathogens associated with periodontal pathologies. For each strain the nutritive media and atmospheric conditions used were the most suitable for their proper growth as summarized in TABLE 1.
(§2) For each microorganism, isolated colonies were used for preparing a suspension in Phosphate Buffered Saline 0.1M (PBS) with an optical density equivalent to a Mc Farland standard No. 3. The suspension was used for obtaining a confluent layer of microorganism over the corresponding nutrient medium (TABLE 1) by uniformly seeding the microorganism using a sterile swab.
(§3) Immediately after the inoculation of the strains in the plates, 6 mm of cellulose discs were placed. The discs were impregnated with different conventional antiseptics according to TABLE 2:
(§4) The volume used was the maximum allowed by the disc without spreading on the medium. The solvent was confirmed to not be inhibitory against the bacteria at the amount used. Microorganism were allowed to grow according to the conditions of TABLE 1, and halos of inhibition (in millimeters) measured after 24 h or 48 h according to the corresponding optimal growth conditions for the microorganisms. Results were obtained in triplicate.

P. acidilactici CECT8633 = type: cell-based, Pediococcus acidilactici
Protocol: as §1, §2, §3, §4

[2] = test system: Porphyromonas gingivalis DSM20709; type: cell-based
Protocol: as §1, §2, §3, §4

[3] = test system: Streptococcus sp. strains (S. oralis, S. salivarius K12); type: cell-based
Protocol: as §1, §2, §3, §4

L. brevis CD2 = type: cell-based, Lactobacillus brevis
Protocol: as §1, §2, §3, §4

P. acidilactici AB134 = type: cell-based, Pediococcus acidilactici; conditions: 6 mm discs impregnated with chlorhexidine; concentration not given
Protocol: as §1, §2, §3, §4

[4] = test system: Pediococcus pentosaceous CECT8330; type: cell-based, Pediococcus pentosaceus; conditions: 6 mm discs impregnated with chlorhexidine; concentration not given
Protocol: as §1, §2, §3
as §4, with “The solvent was confirmed to not be inhibitory against the bacteria at the amount used.” left out, “Results were obtained in triplicate.” left out

[5] = highest concentration tested 0.12%, v/v
[6] = 6 mm discs impregnated with chlorhexidine, concentration not given
[7] = any of the concentration tested (0.12%, 0.06%, 0.03%)
[8] = highest concentration tested 1.2 mg/mL, 5 uL per disc
[9] = triclosan at different concentrations (0.2%, 0.1%, 0.05%), 5 uL per disc

In the case of N=C(NCCCCCCNC(=N)NC(=N)Nc1ccc(Cl)cc1)NC(=N)Nc1ccc(Cl)cc1.O=C(O)[C@H](O)[C@@H](O)[C@H](O)[C@H](O)CO.O=C(O)[C@H](O)[C@@H](O)[C@H](O)[C@H](O)CO [chlorhexidine gluconate], the “inhibition (halo, disc diffusion)” value [1, 5] is reported as “all the strains were inhibited”, the “resistance compared with the other strains tested (disc diffusion)” value [1] is reported as “highest resistance” and the “inhibition halo compared with S. salivarius K12 and P. gingivalis” value (P. acidilactici CECT8633; chlorhexidine gluconate 0.12%, 20 μl per 6-mm disc (FIG. 7)) is reported as “lower inhibition halo”. The “inhibition (halo, disc diffusion)” value [2, 5] was “all the strains were inhibited”, the “inhibition (halo, disc diffusion)” value [3, 5] was “all the strains were inhibited” and the “inhibition (halo, disc diffusion)” value (L. brevis CD2; [5]) was “all the strains were inhibited”.
NC(=NCCCCCCN=C(N)/N=C(\N)Nc1ccc(Cl)cc1)/N=C(\N)Nc1ccc(Cl)cc1 [chlorhexidine, (1E)-2-[6-[[amino-[(E)-[amino-(4-chloroanilino)methylidene]-amino]methylidene]amino]hexyl]-1-[amino-(4-chloroanilino)methylidene]guanidine] was tested, and the “inhibition (halo, disc diffusion)” value [1, 5] was “all the strains were inhibited”, the “resistance compared with the other strains tested (disc diffusion)” value [1] was “greatest resistance” and the inhibition halo (P. acidilactici CECT8633; [6]) was 3 mm. For the same molecule, the inhibition halo (P. acidilactici AB134) was 2 mm, the inhibition halo [2, 6] was 9 mm and the “inhibition (halo, disc diffusion)” value [2, 7] was “inhibited at any of the concentration tested”. The “inhibition (halo, disc diffusion)” value [2, 5] was “all the strains were inhibited”, the “inhibition (halo, disc diffusion)” value [3, 7] was “inhibited at any of the concentration tested” and the “inhibition (halo, disc diffusion)” value [3, 5] was “all the strains were inhibited”. The inhibition halo [4] was 4 mm, the “inhibition (halo, disc diffusion)” value (L. brevis CD2; concentrations of 0.12% and 0.06%) was “inhibited” and the “inhibition (halo, disc diffusion)” value (L. brevis CD2; [5]) was “all the strains were inhibited”.
For Cc1ccc(C(C)C)c(O)c1 [thymol, 2-isopropyl-5-methylphenol], the “growth inhibition (halo, disc diffusion)” value [2, 8] was “inhibited the growth” and the “growth inhibition (halo, disc diffusion)” value [3, 8] was “inhibited the growth”.
With Oc1cc(Cl)ccc1Oc1ccc(Cl)cc1Cl [triclosan, 5-Chloro-2-(2,4-dichlorophenoxy)phenol] the “inhibition (halo, disc diffusion)” value [1, 9] was “neither Lactobacillus brevis nor the strains belonging to Pediococcus genus were inhibited”, the “inhibition (halo, disc diffusion)” value [2, 9] was “inhibited” and the “inhibition (halo, disc diffusion)” value [3, 9] was “inhibited”. The “inhibition (halo, disc diffusion)” value (L. brevis CD2; [9]) was “neither Lactobacillus brevis nor the strains belonging to Pediococcus genus were inhibited”.
